From article PMC5814837 (Pest Management Science, 2017) come the findings set out here.

Test [1] has as its target mitochondrial succinate dehydrogenase (SDH) (Zymoseptoria tritici, UniProt F9X9V6+F9XH52+O42772, N33T/N34T). Put plainly: biochemical. The conditions noted are these: IC50.
In test [2] the target is mitochondrial succinate dehydrogenase (SDH) (Zymoseptoria tritici, UniProt F9X9V6+F9XH52+O42772, N33T/N34T/V106L). Put plainly: biochemical. Particulars: IC50.

Turning to `Cn1cc(C(=O)Nc2ccc(F)cc2-c2ccc(Cl)c(Cl)c2)c(C(F)F)n1` [Bixafen, bixafen], the IC50 in test [1] came out at 31 ± 17 nM; in test [2], 44 ± 11 nM.

Take `O=C(NCCc1ncc(C(F)(F)F)cc1Cl)c1ccccc1C(F)(F)F` [Fluopyram, fluopyram]: the half-maximal inhibitory concentration (IC50) in test [1] was 134 ± 67 nM; in test [2], 12400 ± 1320 nM.

For `Cc1cc(OC(C)C)ccc1C(=O)C(C)(C)NC(=O)c1sccc1C` [Isofetamid, N‐[1,1‐dimethyl‐2‐(4‐isopropoxy‐o‐tolyl)‐2‐oxoethyl]‐3‐methylthiophene‐2‐carboxamide], the IC50 in test [1] was 46 ± 9 nM; in test [2], above 32000 nM.

In general, IC50 refers to the concentration needed to halve the response being measured. Read a low IC50 as higher potency.
